Literature values in patent US7030077B2, “Detergent compositions” (Unilever Home and Personal Care USA, a division of Conopco, …, priority 2002, dated 2006).
Read-outs that look alike come from different tables or passages of the source.

[1] = other common materials, by contrast, at 20° C.

SMILES	Water Solubility (g/100 g) [1]	Water Solubility (g/100 g) (highly water-soluble materials, grams of solid to form a saturated solution in 100 g of deionised water at 20° C.)
O=BO[O-].[Na+] [Sodium perborate anhydrous]	3.7 g/100 g	–
NC(N)=O [Urea]	–	>100 g/100 g
O=P(O)(O)OP(=O)(O)OP(=O)(O)O [Sodium tripolyphosphate anhydrous]	15 g/100 g	–
